pIC50: −log10 of the molar value.
How the values were obtained:
[1] = biological target: cytochrome P450 2C9 (Homo sapiens, UniProt P11712); test: Inhibitory activity on cytochrome P450 2C9; type: in vitro ADME; settings: no significant inhibition
[2] = biological target: cytochrome P450 2D6 (Homo sapiens, UniProt P10635); test: Inhibitory activity on cytochrome P450 2D6; type: in vitro ADME; settings: no significant inhibition
[3] = biological target: cytochrome P450 3A4 (Homo sapiens, UniProt P08684); test: Inhibitory activity on cytochrome P450 3A4; type: in vitro ADME; settings: no significant inhibition
Sequence of cytochrome P450 3A4 (P08684 whole entry): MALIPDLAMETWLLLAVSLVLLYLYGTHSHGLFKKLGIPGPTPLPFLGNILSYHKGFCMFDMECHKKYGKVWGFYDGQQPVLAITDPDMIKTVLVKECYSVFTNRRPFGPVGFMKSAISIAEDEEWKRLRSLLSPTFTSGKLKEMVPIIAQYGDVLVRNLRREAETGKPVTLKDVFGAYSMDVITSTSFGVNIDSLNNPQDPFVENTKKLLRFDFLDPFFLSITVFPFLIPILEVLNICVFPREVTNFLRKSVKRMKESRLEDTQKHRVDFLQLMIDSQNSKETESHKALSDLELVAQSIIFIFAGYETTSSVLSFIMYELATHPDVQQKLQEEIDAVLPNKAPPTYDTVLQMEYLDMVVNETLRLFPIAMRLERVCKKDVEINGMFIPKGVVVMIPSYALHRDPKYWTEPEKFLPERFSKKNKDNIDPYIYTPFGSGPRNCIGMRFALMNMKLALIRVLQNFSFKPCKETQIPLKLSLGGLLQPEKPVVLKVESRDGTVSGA

[4] = biological target: T1, cytochrome P450 1A2 (Homo sapiens, UniProt P05177); test: Inhibitory activity on cytochrome P450 1A2; type: in vitro ADME; settings: no significant inhibition
T1 sequence (P05177 1-516): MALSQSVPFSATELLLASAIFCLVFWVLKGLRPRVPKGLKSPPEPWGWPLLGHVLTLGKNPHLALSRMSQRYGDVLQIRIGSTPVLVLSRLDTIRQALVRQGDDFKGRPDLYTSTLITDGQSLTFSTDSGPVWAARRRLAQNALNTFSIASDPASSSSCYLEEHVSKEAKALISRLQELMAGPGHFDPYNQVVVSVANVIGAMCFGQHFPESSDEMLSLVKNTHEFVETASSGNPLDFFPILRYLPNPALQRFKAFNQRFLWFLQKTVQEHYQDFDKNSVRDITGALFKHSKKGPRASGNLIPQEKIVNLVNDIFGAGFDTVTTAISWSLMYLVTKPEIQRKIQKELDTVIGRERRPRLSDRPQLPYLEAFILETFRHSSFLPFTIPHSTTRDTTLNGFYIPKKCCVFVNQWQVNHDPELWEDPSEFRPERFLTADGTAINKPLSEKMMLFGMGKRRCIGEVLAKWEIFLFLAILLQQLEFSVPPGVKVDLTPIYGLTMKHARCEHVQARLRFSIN

[5] = biological target: T2, Wild Type ALK kinase (Homo sapiens, UniProt Q9UM73); test: HTRF KinEASE-TK assay, inhibitory activity on wild type ALK kinase; type: biochemical; settings: wild type ALK 1 ng/μl, substrate 1 μM, 30° C. 35 minutes, read-out: Inhibition on ALK kinases (wildtype), IC50
T2 construct: purchased Sino-US Crown Bioscience, Inc. batch number ALK 20110607
T2 sequence (Q9UM73 19-1620): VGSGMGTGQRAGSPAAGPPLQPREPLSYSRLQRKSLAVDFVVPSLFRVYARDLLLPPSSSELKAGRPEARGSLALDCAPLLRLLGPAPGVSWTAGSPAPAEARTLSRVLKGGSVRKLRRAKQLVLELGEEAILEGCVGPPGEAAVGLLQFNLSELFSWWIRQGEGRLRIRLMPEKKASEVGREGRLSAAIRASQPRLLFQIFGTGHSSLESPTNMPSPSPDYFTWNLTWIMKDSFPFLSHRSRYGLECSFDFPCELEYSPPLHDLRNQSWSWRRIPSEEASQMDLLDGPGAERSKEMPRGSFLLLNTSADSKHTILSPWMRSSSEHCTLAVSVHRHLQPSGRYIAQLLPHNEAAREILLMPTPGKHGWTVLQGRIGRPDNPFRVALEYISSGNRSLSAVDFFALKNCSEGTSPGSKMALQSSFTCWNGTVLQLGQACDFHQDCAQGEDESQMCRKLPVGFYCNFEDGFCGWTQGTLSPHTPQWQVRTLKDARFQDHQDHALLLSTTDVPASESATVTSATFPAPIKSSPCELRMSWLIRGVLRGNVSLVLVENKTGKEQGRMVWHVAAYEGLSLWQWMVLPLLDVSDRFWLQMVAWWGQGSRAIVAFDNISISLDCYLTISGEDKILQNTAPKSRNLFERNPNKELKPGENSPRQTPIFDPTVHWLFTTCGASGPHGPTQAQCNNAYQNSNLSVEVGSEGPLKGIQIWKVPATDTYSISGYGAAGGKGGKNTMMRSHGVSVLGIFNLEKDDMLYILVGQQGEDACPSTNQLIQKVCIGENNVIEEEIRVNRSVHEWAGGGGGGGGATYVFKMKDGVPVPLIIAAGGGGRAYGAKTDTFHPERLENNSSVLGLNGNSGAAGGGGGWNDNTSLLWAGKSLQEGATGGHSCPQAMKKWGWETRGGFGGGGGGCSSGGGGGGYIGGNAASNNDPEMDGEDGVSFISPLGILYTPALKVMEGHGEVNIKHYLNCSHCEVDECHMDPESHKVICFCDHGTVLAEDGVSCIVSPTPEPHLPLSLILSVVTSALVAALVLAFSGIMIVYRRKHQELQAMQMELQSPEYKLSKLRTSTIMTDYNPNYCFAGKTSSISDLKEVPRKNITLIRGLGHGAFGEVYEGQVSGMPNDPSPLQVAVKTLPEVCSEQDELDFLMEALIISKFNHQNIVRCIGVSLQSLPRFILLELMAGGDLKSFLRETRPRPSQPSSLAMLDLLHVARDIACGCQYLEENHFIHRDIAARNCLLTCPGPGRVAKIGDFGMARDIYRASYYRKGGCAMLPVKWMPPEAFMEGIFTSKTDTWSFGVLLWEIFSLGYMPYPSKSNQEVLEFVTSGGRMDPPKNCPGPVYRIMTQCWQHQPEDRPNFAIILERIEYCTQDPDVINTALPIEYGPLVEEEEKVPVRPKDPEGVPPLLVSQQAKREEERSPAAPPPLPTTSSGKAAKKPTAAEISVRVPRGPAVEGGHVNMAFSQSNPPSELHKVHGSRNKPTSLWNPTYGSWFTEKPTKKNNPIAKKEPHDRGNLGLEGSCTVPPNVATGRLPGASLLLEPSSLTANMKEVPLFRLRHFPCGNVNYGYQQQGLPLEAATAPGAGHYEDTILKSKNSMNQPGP
Excerpt: 1. Inhibitory Activities of the Compounds of the Present Invention on Wild Type ALK Kinases
? experimental method ? HTRF KinEASE™-TK Assay kit from Cisbio company was used to detect inhibitory activities of the compounds on wildtype ALK kinases (wild type ALK kinases).
(§1) ? instrument ? Envision 2104 plate reader from PerKinElmer company.
(§2) ? experiment material ? HTRF KinEASE™-TK Assay Kit (Cisbio company, catalog No. 62TK0PEC); Wild Type ALK kinase (produced by Sino-US Crown Bioscience, Inc., batch number ALK 20110607); DTT (Gibco BRL company, catalog No. 15508-012); MgCl2 (Sigma Aldrich company, catalog No. M-2670); ATP (Sigma Aldrich company, catalog No. A-7699); DMSO (AMRESCO company, catalog No. 0231); EDTA (AMRESCO company, catalog No. 0105); 96 wells plates (for diluting compounds) (CITOTEST company, catalog No. Ref36020096D); OptiPlate™-384 (White), PerkinElmer company, catalog No. P12-004)
(§3) ? experimental condition ? Compounds (the final concentration of DMSO was 1%), the reaction substrate (the final concentration was 1 μM), ATP (the final concentration was 2004), and Wildtype ALK kinases (the final concentration was 1 ng/μl) were mixed respectively in a final volume of 10 μl reaction system (containing 5 mM MgCl2, 1× Kinase buffer, and 1 mM DTT). The mixture was reacted at 30° C. for 35 minutes after shaking for 30 seconds. After completion of the reaction, each well was added with 5 μl Sa-XL665 and 5 μl TK Antibody-Eu(K), and placed in the dark for 60 minutes to end the reaction after uniform mixing. The data was read from PerkinElmer EnVision plate reader ([…]), the 665/615 ratio was calculated, and the data was analyzed.
(§4) ? tested samples ? Compounds from the examples.
(§5) ? data analysis ? Minimum 665/615 ratio (Rmin, 665/615 ratio under the condition that 10.4 μM positive control drug LDK-378 was added)
(§6) Maximum 665/615 ratio (Rmax, 665/615 ratio under the condition that no compound was added)
(§7) Tested 665/615 ratio (Rcompound, 665/615 ratio under the condition that a given concentration of compound was added) Inhibition rate (%)=[1−(Rcompound−Rmin)/(Rmax−Rmin)]×100
(§8) ? data processing ? IC50 of compounds was calculated by using XLfit program in Excel.

[6] = biological target: cytochrome P450 2C19 (Homo sapiens, UniProt P33261); test: Inhibitory activity on cytochrome P450 2C19; type: in vitro ADME; settings: no significant inhibition
Sequence of cytochrome P450 2C19 (P33261 whole entry): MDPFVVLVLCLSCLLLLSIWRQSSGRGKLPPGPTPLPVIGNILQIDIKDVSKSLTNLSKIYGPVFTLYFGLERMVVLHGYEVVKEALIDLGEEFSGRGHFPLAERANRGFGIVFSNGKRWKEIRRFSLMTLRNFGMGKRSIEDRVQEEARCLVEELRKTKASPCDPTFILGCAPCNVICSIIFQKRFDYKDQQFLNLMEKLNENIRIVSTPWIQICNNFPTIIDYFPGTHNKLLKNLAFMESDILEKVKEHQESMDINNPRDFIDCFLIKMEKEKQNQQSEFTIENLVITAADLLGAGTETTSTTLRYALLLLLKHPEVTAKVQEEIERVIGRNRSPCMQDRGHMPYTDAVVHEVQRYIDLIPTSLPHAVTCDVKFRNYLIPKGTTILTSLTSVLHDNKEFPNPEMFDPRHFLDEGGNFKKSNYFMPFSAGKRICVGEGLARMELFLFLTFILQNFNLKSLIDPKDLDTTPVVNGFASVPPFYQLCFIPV

[7] = biological target: T3, L1196M mutant ALK kinase (Homo sapiens, UniProt Q9UM73, L1196M); test: HTRF KinEASE-TK assay, inhibitory activity on L1196M mutant ALK kinase; type: biochemical; settings: L1196M mutant ALK 1 ng/μl, substrate 1 μM, ATP 5 μM, 30° C. 35 minutes, read-out: Inhibition on ALK kinases (L1196M mutant), IC50
T3 construct: purchased Sino-US Crown Bioscience, Inc. batch number ALKm_20110923
T3 sequence (Q9UM73 19-1620 L1196M): as the sequence (Q9UM73 19-1620) above, with L1178M counted along it
Excerpt: 2. Inhibitory Activities of the Compounds of the Present Invention on L1196M Mutant ALK Kinases
? experimental method ? HTRF KinEASE™-TK Assay kit from Cisbio company was used to detect inhibitory activities of the compounds on L1196M mutant ALK kinases.
as §1
as §2, with “L1196M mutant” for “Wild Type”, “ALKm_20110923);” for “ALK 20110607);”, “A-7699, batch number 051M7014V);” for “A-7699);”
as §3, with “5 μM),” for “2004),”, “L1196M mutant” for “Wildtype”
as §4, §5, §6, §7, §8

[8] = tested on: Karpas-299 cell line; test: CellTiter-Glo cell proliferation inhibition on Karpas-299 cell line; type: cell-based; settings: Homo sapiens, 96 h, Karpas-299 cells, 5000 cells/well, 4 days drug treatment
Description: 4. Cell Proliferation Inhibitory Activities of the Compounds of the Present Invention on Karpas-299 Cell Line
? experimental method ? CellTiter-Glo® Luminescent Cell Viability Assay kit from Promega company was used to detect cell proliferation inhibitory activities of the compounds on Karpas-299 cell line.
? instrument ? Envision 2104 plate reader from PerKinElmer company; Vi-Cell XR cell counter from Beckman Counter company; MCO-18AIC CO2 incubator from SANYO company.
? experiment material ? CellTiter-Glo® Luminescent Cell Viability Assay Kit (Promega company, catalog No. G7573); Karpas-299 cell line (DSMZ, catalog No. ACC31); RPMI-1640 medium (HyClone company, catalog No. SH30809.01B); fetal bovine serum (FBS) (Gibco company, catalog No. 10099-141); PBS (HyClone company, catalog No. SH30256.01B); 96 wells cell culture plate (Corning company, catalog No. 3610); DMSO (AMRESCO company, catalog No. 0231); 96 wells plates (for diluting compounds) (CITOTEST company, catalog No. Ref36020096D);
? experimental condition ? Karpas-299 cells in exponential growth phase were collected and viable cells were counted by Vi-Cell XR cell counter. Cell suspension was adjusted to 62500 cells/ml with culture medium (RPMI-1640+10% FBS). 80 μl cell suspension was added into each well of 96 wells cell culture plate so that so that the final cell number of Karpas-299 cells was 5000 cells/well. The cells were cultivated in an incubator with an atmosphere of 37° C., 5% CO2 and 95% humidity for 2 hours and then each well was added with 20 μl compounds in RPMI-1640 medium solution (the final concentration of DMSO was 0.5%). 4 days after drug treatment, each well was added with 50 μl CellTiter-Glo solution which was previously thawed and equilibrated to room temperature, and mixed for 2 minutes with microplate shaker. After placing at room temperature for 10 minutes, luminescence reading value was measured with PerkinElmer Envision 2104 plate reader and the data was analyzed.
? tested samples ? Compounds of the examples.
Luminescence value of DMSO solvent control (Vvehicle control, which is the mean luminescence value from DMSO solvent control group)
Tested luminescence value (Vsample, which is the luminescence value from given concentration of compounds group) Inhibition rate (%)=(1−Vsample/Vvehicle control)×100
as §8

[9] = tested on: NCI-H2228 cell line; test: CellTiter-Glo cell proliferation inhibition on NCI-H2228 cell line; type: cell-based; settings: Homo sapiens, NCI-H2228 cells, 5000 cells/well, 4 days drug treatment
Procedure, shortened: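 NCI-H2228 cells, 5000/well in RPMI-1640 + 10% FBS, treated with compounds 2 h after seeding (0.5% DMSO final) for 4 days at 37° C. Viability by CellTiter-Glo luminescence; inhibition relative to DMSO control, IC50 from curve fit.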

Sequence of cytochrome P450 2C9 (P11712 whole entry): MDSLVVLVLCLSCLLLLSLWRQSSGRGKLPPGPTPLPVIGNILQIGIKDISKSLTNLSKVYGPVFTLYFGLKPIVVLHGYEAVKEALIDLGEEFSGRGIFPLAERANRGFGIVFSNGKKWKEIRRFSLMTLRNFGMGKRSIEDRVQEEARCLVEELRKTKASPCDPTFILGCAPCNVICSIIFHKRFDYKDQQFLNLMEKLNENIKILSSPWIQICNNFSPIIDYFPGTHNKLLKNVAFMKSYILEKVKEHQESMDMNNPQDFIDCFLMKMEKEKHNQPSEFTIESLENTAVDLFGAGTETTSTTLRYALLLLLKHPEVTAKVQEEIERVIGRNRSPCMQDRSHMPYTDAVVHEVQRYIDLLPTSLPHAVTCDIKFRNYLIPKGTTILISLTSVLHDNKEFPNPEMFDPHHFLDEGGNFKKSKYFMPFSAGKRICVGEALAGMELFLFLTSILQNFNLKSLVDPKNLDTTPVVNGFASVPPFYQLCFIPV
Sequence of cytochrome P450 2D6 (P10635 whole entry): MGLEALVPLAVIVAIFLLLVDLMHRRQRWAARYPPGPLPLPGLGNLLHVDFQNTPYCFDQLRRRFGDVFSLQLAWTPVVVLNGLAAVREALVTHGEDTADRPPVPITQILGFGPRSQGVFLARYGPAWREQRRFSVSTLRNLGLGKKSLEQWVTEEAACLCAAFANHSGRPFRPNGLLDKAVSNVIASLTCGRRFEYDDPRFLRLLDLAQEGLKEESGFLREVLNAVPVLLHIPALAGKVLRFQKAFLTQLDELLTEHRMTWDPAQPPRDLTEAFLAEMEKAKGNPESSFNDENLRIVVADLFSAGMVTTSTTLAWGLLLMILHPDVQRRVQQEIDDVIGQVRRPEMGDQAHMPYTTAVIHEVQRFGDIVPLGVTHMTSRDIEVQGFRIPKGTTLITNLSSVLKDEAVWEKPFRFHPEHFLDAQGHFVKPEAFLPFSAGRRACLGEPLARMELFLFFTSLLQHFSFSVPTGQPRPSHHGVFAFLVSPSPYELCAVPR

Row | pIC50 [1] | pIC50 [2] | pIC50 [3] | pIC50 [4] | pIC50 [5] | pIC50 [6] | pIC50 [7] | pIC50 [8] | pIC50 ([9]; NCI-H2228, 96 h) | Compound | pIC50 ([9]; 96 h)
1 | < 5.00 | < 5.00 | < 5.00 | < 5.00 | 8.52 | < 5.00 | 8.40 | – | – | CC(C)S(=O)(=O)c1nn(C)cc1Nc1nc(Nc2cc(F)c(C3CCN(C)CC3)cc2OC2CC2)ncc1Cl [Final product 44] | –
2 | < 5.00 | < 5.00 | < 5.00 | < 5.00 | 8.70 | < 5.00 | 8.40 | – | – | Cc1cc(Nc2ncc(Cl)c(Nc3cn(C)nc3S(=O)(=O)C(C)C)n2)c(OC2CC2)cc1C1CCN(C)CC1 [Final product 51] | –
3 | – | – | – | – | – | – | – | 7.28 | 6.81 | COC1CN(C)CCC1c1cc(OC2CC2)c(Nc2ncc(Cl)c(Nc3cn(C)nc3S(=O)(=O)CC(C)C)n2)cc1C (stereo not drawn) [Final product 59] | –
4 | < 5.00 | < 5.00 | < 5.00 | < 5.00 | – | < 5.00 | – | – | 7.55 | Cc1cc(Nc2ncc(Cl)c(Nc3cn(C)nc3S(=O)(=O)C(C)C)n2)c(OC2CC2)cc1C1CCCN(C)C1 (stereo not drawn) [Final product 60] | –
5 | < 5.00 | < 5.00 | < 5.00 | < 5.00 | 8.40 | < 5.00 | 8.10 | – | – | Cc1cc(Nc2ncc(Cl)c(Nc3cn(C)nc3S(=O)(=O)C(C)C)n2)c(OC(C)C)cc1C1CCN(C)CC1 [Final product 80] | –
6 | – | – | – | – | – | – | – | 7.96 | 7.28 | COCCN1CCC(c2cc(OC3CC3)c(Nc3ncc(Cl)c(Nc4cn(C)nc4S(=O)(=O)CC(C)C)n3)cc2C)CC1 [Final product 83] | –
7 | < 5.00 | < 5.00 | < 5.00 | < 5.00 | – | < 5.00 | – | – | 6.81 | Cc1cc(Nc2ncc(Cl)c(Nc3cn(C)nc3S(=O)(=O)C(C)C)n2)c(OC(C)C)cc1C1CC(C)N(C)C(C)C1 (stereo not drawn) [Final product 97] | –
8 | – | – | – | – | – | – | – | 8.22 | 7.21 | Cc1cc(Nc2ncc(Cl)c(Nc3cn(C)nc3S(=O)(=O)C(C)C)n2)c(OC2CC2)cc1C1CCN(C)C(C)(C)C1 (stereo not drawn) [Final product 100] | –
9 | – | – | – | – | – | – | – | 8.00 | 7.18 | Cc1cc(Nc2ncc(Cl)c(Nc3cn(C)nc3S(=O)(=O)C(C)C)n2)c(OC2CC2)cc1C1CCN(C)C(=O)C1 (stereo not drawn) [Final product 103] | –
10 | < 5.00 | < 5.00 | < 5.00 | < 5.00 | – | < 5.00 | – | – | 6.85 | Cc1cc(Nc2ncc(Cl)c(Nc3cn(C)nc3S(=O)(=O)C(C)C)n2)c(OC2CC2)cc1C1CCC(N2CCN(C)CC2)CC1 (stereo not drawn) [Final product 202] | –

Row | Compound | pIC50 [1] | pIC50 [2] | pIC50 [3] | pIC50 [4] | pIC50 [5] | pIC50 [6] | pIC50 [7] | pIC50 [8] | pIC50 ([9]; NCI-H2228, 96 h) | pIC50 ([9]; 96 h)
11 | CCN1CCC(c2cc(OC3CC3)c(Nc3ncc(Cl)c(Nc4cn(C)nc4S(=O)(=O)C(C)C)n3)cc2C)CC1 [Final product 114, 5-chloro-N^2-[2-cyclopropoxy-4-(1-ethylpiperidin-4-yl)-5-methylphenyl]-N^4-[1-methyl-3-(isopropylsulfonyl)-1H-pyrazol-4-yl]-pyrimidin-2,4-diamine] | < 5.00 | < 5.00 | < 5.00 | < 5.00 | – | < 5.00 | – | 8.00 | – | 7.15
